Experimental data: US20090191636A1, “Method of Producing Transgenic Graminaceous Cells and Plants” (priority 2006, published 2009)

Experiments:
[1] = system: wheat embryos derived from mature dried grain of the cultivar Ventura; assay: Effect of D-amino acids on regeneration of wheat from embryos of mature dried grain (Ventura); type: cell-based; settings: n = 20
[2] = system: wheat mature dried grain of the cultivar Bobwhite; assay: Effect of D-amino acids on germination of wheat mature dried grain (Bobwhite); type: in vivo, Triticum aestivum; settings: n = 15
Protocol: (§1) A range of concentrations of the D-amino acids D-serine and D-alanine were tested for effects on wheat regeneration and germination from embryos derived from mature dried grain of the cultivar Bobwhite.

[3] = system: wheat mature dried grain of the cultivar Ventura; assay: Effect of D-amino acids on germination of wheat mature dried grain (Ventura); type: in vivo; settings: n = 15
Protocol: [Worded in the source for another variant; this variant is reported under the same test.] as §1

[4] = system: wheat embryos derived from mature dried grain of the cultivar Bobwhite; assay: Effect of D-amino acids on regeneration of wheat from embryos of mature dried grain (Bobwhite); type: cell-based, Triticum aestivum; settings: for proportion (%) of explants regenerating after 3 weeks, Average / proportion (%) of explants regenerating after 3 weeks, Experiment number 1 / proportion (%) of explants regenerating after 3 weeks, Experiment number 2 / proportion (%) of explants regenerating after 3 weeks, Experiment number 3: n = 20
Protocol: as §1

SMILES: N[C@H](CO)C(=O)O [D-serine]
- proportion (%) of explants regenerating after 3 weeks, Average ([1]; 0.5 mM): 10%
- proportion (%) of explants regenerating after 3 weeks, Experiment number 1 ([1]; 0.5 mM): 10%
- proportion (%) of explants regenerating after 3 weeks, Experiment number 2 ([1]; 0.5 mM): 15%
- proportion (%) of explants regenerating after 3 weeks, Experiment number 3 ([1]; 0.5 mM): 5%
- proportion (%) of explants regenerating after 3 weeks, Average ([1]; 1 mM): 7%
- proportion (%) of explants regenerating after 3 weeks, Experiment number 1 ([1]; 1 mM): 10%
- proportion (%) of explants regenerating after 3 weeks, Experiment number 2 ([1]; 1 mM): 5%
- proportion (%) of explants regenerating after 3 weeks, Experiment number 3 ([1]; 1 mM): 5%
- proportion (%) of explants regenerating after 3 weeks, Average ([1]; 5 mM): 5%
- proportion (%) of explants regenerating after 3 weeks, Experiment number 1 ([1]; 5 mM): 5%
- proportion (%) of explants regenerating after 3 weeks, Experiment number 2 ([1]; 5 mM): 5%
- proportion (%) of explants regenerating after 3 weeks, Average ([1]; 7.5 mM): 0%
- proportion (%) of explants regenerating after 3 weeks, Experiment number 1 ([1]; 7.5 mM): 0%
- proportion (%) of explants regenerating after 3 weeks, Experiment number 2 ([1]; 7.5 mM): 0%
- proportion (%) of explants regenerating after 3 weeks, Experiment number 3 ([1]; 7.5 mM): 0%
- proportion (%) of explants regenerating after 3 weeks, Average ([1]; 10 mM): 0%
- proportion (%) of explants regenerating after 3 weeks, Experiment number 1 ([1]; 10 mM): 0%
- proportion (%) of explants regenerating after 3 weeks, Experiment number 2 ([1]; 10 mM): 0%
- proportion (%) of explants regenerating after 3 weeks, Experiment number 3 ([1]; 10 mM): 0%
- proportion (%) of explants regenerating after 3 weeks, Average ([1]; 30 mM): 0%
- proportion (%) of explants regenerating after 3 weeks, Experiment number 1 ([1]; 30 mM): 0%
- proportion (%) of explants regenerating after 3 weeks, Experiment number 2 ([1]; 30 mM): 0%
- proportion (%) of explants regenerating after 3 weeks, Experiment number 3 ([1]; 30 mM): 0%
- proportion (%) of explants germinated after 1 week, Average ([2]; 0.5 mM): 62%
- proportion (%) of explants germinated after 1 week, Experiment Number 1 ([2]; 0.5 mM): 35%
- proportion (%) of explants germinated after 1 week, Experiment Number 2 ([2]; 0.5 mM): 70%
- proportion (%) of explants germinated after 1 week, Experiment Number 3 ([2]; 0.5 mM): 80%
- proportion (%) of explants germinated after 1 week, Average ([2]; 1 mM): 57%
- proportion (%) of explants germinated after 1 week, Experiment Number 1 ([2]; 1 mM): 30%
- proportion (%) of explants germinated after 1 week, Experiment Number 2 ([2]; 1 mM): 80%
- proportion (%) of explants germinated after 1 week, Experiment Number 3 ([2]; 1 mM): 60%
- proportion (%) of explants germinated after 1 week, Average ([2]; 5 mM): 38%
- proportion (%) of explants germinated after 1 week, Experiment Number 1 ([2]; 5 mM): 20%
- proportion (%) of explants germinated after 1 week, Experiment Number 2 ([2]; 5 mM): 70%
- proportion (%) of explants germinated after 1 week, Experiment Number 3 ([2]; 5 mM): 25%
- proportion (%) of explants germinated after 1 week, Average ([2]; 7.5 mM): 32%
- proportion (%) of explants germinated after 1 week, Experiment Number 1 ([2]; 7.5 mM): 10%
- proportion (%) of explants germinated after 1 week, Experiment Number 2 ([2]; 7.5 mM): 60%
- proportion (%) of explants germinated after 1 week, Experiment Number 3 ([2]; 7.5 mM): 25%
- proportion (%) of explants germinated after 1 week, Average ([2]; 10 mM): 18%
- proportion (%) of explants germinated after 1 week, Experiment Number 1 ([2]; 10 mM): 0%
- proportion (%) of explants germinated after 1 week, Experiment Number 2 ([2]; 10 mM): 35%
- proportion (%) of explants germinated after 1 week, Experiment Number 3 ([2]; 10 mM): 20%
- proportion (%) of explants germinated after 1 week, Average ([2]; 30 mM): 0%
- proportion (%) of explants germinated after 1 week, Experiment Number 1 ([2]; 30 mM): 0%
- proportion (%) of explants germinated after 1 week, Experiment Number 2 ([2]; 30 mM): 0%
- proportion (%) of explants germinated after 1 week, Experiment Number 3 ([2]; 30 mM): 0%
- germination: proportion (%) of explants regenerating after 1 week, Average ([3]; 0.5 mM): 70%
- germination: proportion (%) of explants regenerating after 1 week, Experiment number 1 ([3]; 0.5 mM): 65%
- germination: proportion (%) of explants regenerating after 1 week, Experiment number 2 ([3]; 0.5 mM): 60%
- germination: proportion (%) of explants regenerating after 1 week, Experiment number 3 ([3]; 0.5 mM): 85%
- germination: proportion (%) of explants regenerating after 1 week, Average ([3]; 1 mM): 68%
- germination: proportion (%) of explants regenerating after 1 week, Experiment number 1 ([3]; 1 mM): 70%
- germination: proportion (%) of explants regenerating after 1 week, Experiment number 2 ([3]; 1 mM): 70%
- germination: proportion (%) of explants regenerating after 1 week, Experiment number 3 ([3]; 1 mM): 65%
- germination: proportion (%) of explants regenerating after 1 week, Average ([3]; 5 mM): 53%
- germination: proportion (%) of explants regenerating after 1 week, Experiment number 1 ([3]; 5 mM): 60%
- germination: proportion (%) of explants regenerating after 1 week, Experiment number 2 ([3]; 5 mM): 45%
- germination: proportion (%) of explants regenerating after 1 week, Average ([3]; 7.5 mM): 23%
- germination: proportion (%) of explants regenerating after 1 week, Experiment number 1 ([3]; 7.5 mM): 15%
- germination: proportion (%) of explants regenerating after 1 week, Experiment number 2 ([3]; 7.5 mM): 20%
- germination: proportion (%) of explants regenerating after 1 week, Experiment number 3 ([3]; 7.5 mM): 35%
- germination: proportion (%) of explants regenerating after 1 week, Average ([3]; 10 mM): 43%
- germination: proportion (%) of explants regenerating after 1 week, Experiment number 2 ([3]; 10 mM): 30%
- germination: proportion (%) of explants regenerating after 1 week, Experiment number 3 ([3]; 10 mM): 55%
- germination: proportion (%) of explants regenerating after 1 week, Average ([3]; 30 mM): 0%
- germination: proportion (%) of explants regenerating after 1 week, Experiment number 1 ([3]; 30 mM): 0%
- germination: proportion (%) of explants regenerating after 1 week, Experiment number 2 ([3]; 30 mM): 0%
- germination: proportion (%) of explants regenerating after 1 week, Experiment number 3 ([3]; 30 mM): 0%
- proportion (%) of explants regenerating after 3 weeks, Average ([4]; 0.5 mM): 28%
- proportion (%) of explants regenerating after 3 weeks, Experiment number 1 ([4]; 0.5 mM): 45%
- proportion (%) of explants regenerating after 3 weeks, Experiment number 2 ([4]; 0.5 mM): 33%
- proportion (%) of explants regenerating after 3 weeks, Experiment number 3 ([4]; 0.5 mM): 5%
- proportion (%) of explants regenerating after 3 weeks, Average ([4]; 1 mM): 23%
- proportion (%) of explants regenerating after 3 weeks, Experiment number 1 ([4]; 1 mM): 30%
- proportion (%) of explants regenerating after 3 weeks, Experiment number 2 ([4]; 1 mM): 33%
- proportion (%) of explants regenerating after 3 weeks, Experiment number 3 ([4]; 1 mM): 5%
- proportion (%) of explants regenerating after 3 weeks, Average ([4]; 5 mM): 8%
- proportion (%) of explants regenerating after 3 weeks, Experiment number 1 ([4]; 5 mM): 10%
- proportion (%) of explants regenerating after 3 weeks, Experiment number 2 ([4]; 5 mM): 10%
- proportion (%) of explants regenerating after 3 weeks, Experiment number 3 ([4]; 5 mM): 5%
- proportion (%) of explants regenerating after 3 weeks, Average ([4]; 7.5 mM): 3%
- proportion (%) of explants regenerating after 3 weeks, Experiment number 1 ([4]; 7.5 mM): 0%
- proportion (%) of explants regenerating after 3 weeks, Experiment number 2 ([4]; 7.5 mM): 5%
- proportion (%) of explants regenerating after 3 weeks, Experiment number 3 ([4]; 7.5 mM): 5%
- proportion (%) of explants regenerating after 3 weeks, Average ([4]; 10 mM): 0%
- proportion (%) of explants regenerating after 3 weeks, Experiment number 1 ([4]; 10 mM): 0%
- proportion (%) of explants regenerating after 3 weeks, Experiment number 2 ([4]; 10 mM): 0%
- proportion (%) of explants regenerating after 3 weeks, Experiment number 3 ([4]; 10 mM): 0%
- proportion (%) of explants regenerating after 3 weeks, Average ([4]; 30 mM): 0%
- proportion (%) of explants regenerating after 3 weeks, Experiment number 1 ([4]; 30 mM): 0%
- proportion (%) of explants regenerating after 3 weeks, Experiment number 2 ([4]; 30 mM): 0%
- proportion (%) of explants regenerating after 3 weeks, Experiment number 3 ([4]; 30 mM): 0%
- levels that reduced the regeneration and germination of wheat plants ([4]; regeneration and germination (Tables 4 and 5)): greater than 7.5 mM
